Measured values taken from patent US20130011378A1, “Stable formulations of a hyaluronan-degrading enzyme” (priority 2011, published 2013).
Counter-ions that a name gives are not always drawn. Like-named read-outs stand apart in the source and are kept apart here.

Legend:
rHuPH20 [1] = target: T1, rHuPH20 (Homo sapiens, UniProt P38567); experiment: RP-HPLC: rHuPH20 oxidation peaks (ox-1, ox-2); type: physicochemical; conditions: 0.02% surfactant, 30° C., 72 hours
T1 construct: made in house; host or cells: CHO cells (DG44 CHO, HZ24 plasmid, clone 2B2)
T1 sequence (P38567 36-482): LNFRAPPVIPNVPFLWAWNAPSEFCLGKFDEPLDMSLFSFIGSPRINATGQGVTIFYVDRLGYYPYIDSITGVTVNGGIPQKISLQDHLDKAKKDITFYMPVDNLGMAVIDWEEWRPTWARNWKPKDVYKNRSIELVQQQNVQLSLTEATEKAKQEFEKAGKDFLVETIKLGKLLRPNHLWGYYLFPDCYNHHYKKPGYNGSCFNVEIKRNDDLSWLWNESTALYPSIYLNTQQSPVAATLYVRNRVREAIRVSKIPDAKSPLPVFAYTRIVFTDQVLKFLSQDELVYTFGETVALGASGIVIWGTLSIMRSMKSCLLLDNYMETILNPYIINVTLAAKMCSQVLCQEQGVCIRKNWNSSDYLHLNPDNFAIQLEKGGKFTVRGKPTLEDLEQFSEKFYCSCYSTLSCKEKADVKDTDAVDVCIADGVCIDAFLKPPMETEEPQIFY
Text: The stability of hyaluronan degrading enzymes in a composition, such as in the co-formulations provided herein, also can be assessed using other methods and assays known in the art. […] Percent recovery is the relative percentage of the hyaluronidase in the co-formulation over time and at various storage conditions, as compared to a reference sample. […] An increase in particle size and a decrease in the melting temperature indicates denaturation and subsequent aggregation of the hyaluronidase. […] Other methods known to one of skill in the art that can be used to determine the stability of the hyaluronidase in the co-formulations provided herein, include polyacrylamide gel electrophoresis (PAGE), immunoblotting, nuclear magnetic resonance (NMR) spectroscopy, mass spectrometry, circular dichroism (CD) and dye-based fluorescence assays.
The formulations varied in the surfactant and surfactant concentration and the buffer (either histidine or phosphate).
Methionine oxidation can be prevented by addition of free methionine as a scavenger to react with potential oxidative compounds.

rHuPH20 [2] = target: T1, rHuPH20; experiment: Determination of hyaluronidase activity of rHuPH20, turbidimetric assay (Example 2, variant not specified); type: biochemical; conditions: for Effect on rHuPH20 enzymatic activity: stabilizer screening in rHuPH20/insulin formulation, semi-quantitative in comparison with NaCl, samples incubated at 30° C. for about one week
[3] = Non-denaturing SEC: percent main peak / aggregates of insulin and rHuPH20; type: physicochemical
Procedure: Reference samples were stored in HPLC vials at 10° C. prior to use.
Samples were stored in HPLC vials at 10° C. prior to use, for up to 3 days.
0.5× Phosphate Buffered Saline (PBS) solution was prepared by diluting 10×PBS with HPLC grade water.
Insulin percent purity was expressed as percentage of the insulin main peak versus the total insulin peaks. The target specification is less than 2% high molecular weight protein, i.e., insulin aggregates.
SEC was performed using the following conditions: 1× Phosphate Buffered Saline (PBS), a Toso BioScience G2000 SWXL column, and a flow rate set at 1 mL/min. Data were collected as described above and means were reported and entered into the design table following the sample sequence provided by the DOE software.

[4] = RP-HPLC: insulin apparent solubility / percent recovery
Procedure: Apparent solubility was measured as the percent insulin recovery as compared to the initial formulations/conditions.
Samples were prepared by withdrawing 100 μL from each vial at every time point and centrifuging prior to loading. Samples were stored in an autosampler at 4° C. prior to use, and were considered stable for 3 days after preparation. All samples were tested in duplicate.
For insulin, 20 μL was injected for each HPLC run.
To determine the apparent solubility, the peak area of insulin/insulin analog main peak and desamido peak were integrated and combined together to calculate the percentage relative to the standards. […] The data were processed using Design-Expert® 7.0 (StatEase) and the “historical data” feature. Insulin percent purity was expressed as the percent of main insulin versus all insulin species.

[5] = t = 0, 100 μg/mL rHuPH20, pH 7.3, 140 mM NaCl, 0.01% polysorbate 80, preservative levels of Table 21, in U/mL
[6] = 35° C., Table 22 concentrations
[7] = stabilizer screening in rHuPH20/insulin formulation, semi-quantitative in comparison with NaCl, RP-HPLC, samples stored at 5° C.

Polysorbate 80
% of Oxidation Peak 1 of rHuPH20 (rHuPH20 [1]; Methionine 0 mM): 4.01%
% of Oxidation Peak 1 of rHuPH20 (rHuPH20 [1]; Methionine 2 mM): 3.50%
% of Oxidation Peak 1 of rHuPH20 (rHuPH20 [1]; Methionine 10 mM): 3.44%
% of Oxidation Peak 1 of rHuPH20 (rHuPH20 [1]; Methionine 50 mM): 3.34%

hyaluronic acid [HA]
% of the original activity retained (rHuPH20 [2]; 1 week at 30° C., pH 7.1, 1 mg/mL HA, 75 mM NaCl): 57%
% of the original rHuPH20 remained (rHuPH20 [2]; 1 week at 30° C., pH 7.1, 5.5 mg/mL HA, 100 mM NaCl): 68%
% of the original activity retained (rHuPH20 [2]; 1 week at 30° C., pH 7.1, 10 mg/mL HA): 85%
rHuPH20 activity (rHuPH20 [2]; 1 week at 30° C., pH 7.1, 10 mg/mL HA, from 600 U/mL): 510 U/mL
rHuPH20 activity (rHuPH20 [2]; rHuPH20/insulin co-formulation, 1 week at 30° C., pH 7.1, 1 mg/mL HA, 75 mM NaCl, from 600 U/mL): 341 U/mL
effect on rHuPH20 stability in comparison with NaCl (rHuPH20 [2]; stabilizer screening, 30° C. about one week, […] m-cresol, 0.2% phenol): stabilized rHuPH20 more than NaCl

[H]/N=C(\N/C(=N/[H])NCCCCCCNC(=N)NC(=N)Nc1ccc(Cl)cc1)Nc1ccc(Cl)cc1 [Chlorhexidine dihydrochloride]
% Main rHuPH20 peak by non-denaturing SEC ([3]; 4° C., 1 day): 98.76%
% Main rHuPH20 peak by non-denaturing SEC ([3]; 35° C., 1 day): 98.12%
rHuPH20 activity (rHuPH20 [2]; 24 hours, 25° C., in U/mL): 8130
rHuPH20 activity (rHuPH20 [2]; 5 days, 25° C., in U/mL): 8750
rHuPH20 activity (rHuPH20 [2]; 6 days, 35° C., in U/mL): 11890
rHuPH20 activity (rHuPH20 [2]; [5]): 7,720

OC[C@H]1O[C@H](O[C@H]2O[C@H](CO)[C@@H](O)[C@H](O)[C@H]2O)[C@H](O)[C@@H](O)[C@@H]1O [Trehalose]
Effect on rHuPH20 enzymatic activity (rHuPH20 [2]): No effect

N=C(NCCCCCCNC(=N)NC(=N)Nc1ccc(Cl)cc1)NC(=N)Nc1ccc(Cl)cc1.O=C(O)[C@H](O)[C@@H](O)[C@H](O)[C@H](O)CO.O=C(O)[C@H](O)[C@@H](O)[C@H](O)[C@H](O)CO [Chlorhexidine digluconate]
% Main rHuPH20 peak by non-denaturing SEC ([3]; 4° C., 1 day): 98.35%
% Main rHuPH20 peak by non-denaturing SEC ([3]; 4° C., Table 22 concentrations): 99.77%
% Main rHuPH20 peak by non-denaturing SEC ([3]; 35° C., 1 day): 98.23%
% Main rHuPH20 peak by non-denaturing SEC [3, 6]: 98.30%
rHuPH20 activity (rHuPH20 [2]; 24 hours, 25° C., in U/mL): 9520
rHuPH20 activity (rHuPH20 [2]; 48 hours, 4° C., preservative levels of Table 22, in U/mL): 12,090
rHuPH20 activity (rHuPH20 [2]; 48 hours, 35° C., preservative levels of Table 22, in U/mL): 13,110
rHuPH20 activity (rHuPH20 [2]; 5 days, 25° C., in U/mL): 12310
rHuPH20 activity (rHuPH20 [2]; 6 days, 35° C., in U/mL): 12270
rHuPH20 activity (rHuPH20 [2]; [5]): 9,590

OCC(O)CO [glycerol]
Effect on insulin solubility [4]: No/slight effect;
Effect on rHuPH20 enzymatic activity (rHuPH20 [2]): No effect

COC(=O)c1ccc(O)cc1 [methylparaben]
% Main rHuPH20 peak by non-denaturing SEC ([3]; 4° C., Table 22 concentrations): 100.00%
% Main rHuPH20 peak by non-denaturing SEC [3, 6]: 96.91%
Enzymatic Activity of rHuPH20 (rHuPH20 [2]; preservative 0.3%, 1 Week, 35° C.): 730 U/mL

OC[C@@H](O)[C@@H](O)[C@H](O)[C@@H](O)CO [sorbitol]
Effect on rHuPH20 enzymatic activity (rHuPH20 [2]): No effect

NC(=O)CC[C@H](N)C(=O)O [Glutamine]
Effect on insulin solubility [4, 7]: No effect
Effect on rHuPH20 enzymatic activity (rHuPH20 [2]): No effect

C[N+](C)(C)CC(=O)O [Betaine]
Effect on insulin solubility [4, 7]: No effect
Effect on rHuPH20 enzymatic activity (rHuPH20 [2]): No effect

C[CH2][Hg][S]c1ccccc1C(=O)[O-].[Na+] [Thimerosal]
% Main rHuPH20 peak by non-denaturing SEC ([3]; 4° C., 1 day): 98.59%
% Main rHuPH20 peak by non-denaturing SEC ([3]; 35° C., 1 day): 98.31%
rHuPH20 activity (rHuPH20 [2]; 24 hours, 25° C., in U/mL): 8990
rHuPH20 activity (rHuPH20 [2]; 5 days, 25° C., in U/mL): 8960
rHuPH20 activity (rHuPH20 [2]; 6 days, 35° C., in U/mL): 10070
rHuPH20 activity (rHuPH20 [2]; [5]): 10,290

Polysorbate 20
% of Oxidation Peak 1 of rHuPH20 (rHuPH20 [1]; Methionine 0 mM): 4.01%
% of Oxidation Peak 1 of rHuPH20 (rHuPH20 [1]; Methionine 2 mM): 3.43%
% of Oxidation Peak 1 of rHuPH20 (rHuPH20 [1]; Methionine 10 mM): 3.37%
% of Oxidation Peak 1 of rHuPH20 (rHuPH20 [1]; Methionine 50 mM): 3.38%
